Data set [1] can be described thus: In vivo biodistribution and regional brain uptake in rats. As to conditions: male SD rats, i.v.
For the next data set, the system named is PDE10A. As to conditions: unlabeled compounds; cited from earlier work.

Data on five compounds can be found in publication PMC4054929 (Bioorganic & medicinal chemistry, 2014).

As to `Cn1ncc(-c2ccncc2)c1-c1ccc(OCc2cc(O[11CH3])c3ccccc3n2)cc1` [[^11C]4, 4-(methoxy-^11C)-2-((4-(1-methyl-4-(pyridin-4-yl)-1H-pyrazol-5-yl)phenoxy)methyl)quinoline], in data set [1] (5 min p.i.), the “Biodistribution, blood” value came out at 0.099 ± 0.015 %ID/gram; the “Biodistribution, cerebellum” value amounted to 0.094 ± 0.017 %ID/gram; the “Biodistribution, fat” value came to 0.066 ± 0.016 %ID/gram; the “Biodistribution, heart” value amounted to 0.335 ± 0.026 %ID/gram. Also, in data set [1] (5 min p.i.), the “Biodistribution, kidney” value was 1.744 ± 0.316 %ID/gram; the “Biodistribution, liver” value was 3.312 ± 0.494 %ID/gram; the “Biodistribution, lung” value came to 0.643 ± 0.196 %ID/gram; the “Biodistribution, muscle” value is 0.146 ± 0.027 %ID/gram. Besides, in data set [1] (5 min p.i.), the “Biodistribution, striatum” value is 0.151 ± 0.033 ^a %ID/gram and the “Biodistribution, total brain” value was 0.091 ± 0.017 %ID/gram. For the same compound, in data set [1] (30 min p.i. (control)), the “Biodistribution, blood” value was 0.067 ± 0.006 %ID/gram; the “Biodistribution, cerebellum” value was 0.024 ± 0.007 %ID/gram; the “Biodistribution, fat” value amounted to 0.139 ± 0.027 %ID/gram; the “Biodistribution, heart” value was determined as 0.132 ± 0.019 %ID/gram. Moreover, in data set [1] (30 min p.i. (control)), the “Biodistribution, kidney” value worked out at 0.645 ± 0.088 %ID/gram; the “Biodistribution, liver” value is recorded as 4.430 ± 0.481 %ID/gram; the “Biodistribution, lung” value came to 0.156 ± 0.020 %ID/gram; the “Biodistribution, muscle” value is recorded as 0.093 ± 0.010 %ID/gram. Also, in data set [1] (30 min p.i. (control)), the “Biodistribution, striatum” value is 0.083 ± 0.010 ^a %ID/gram and the “Biodistribution, total brain” value worked out at 0.025 ± 0.004 %ID/gram. Further, in data set [1] (60 min p.i.), the “Biodistribution, blood” value is reported as 0.067 ± 0.011 %ID/gram; the “Biodistribution, cerebellum” value was 0.015 ± 0.003 %ID/gram; the “Biodistribution, fat” value amounted to 0.139 ± 0.058 %ID/gram; the “Biodistribution, heart” value came out at 0.103 ± 0.012 %ID/gram. In data set [1] (60 min p.i.), the “Biodistribution, kidney” value was 0.575 ± 0.075 %ID/gram; the “Biodistribution, liver” value was determined as 4.588 ± 0.577 %ID/gram; the “Biodistribution, lung” value is recorded as 0.107 ± 0.016 %ID/gram; the “Biodistribution, muscle” value is recorded as 0.052 ± 0.009 %ID/gram. In data set [1] (60 min p.i.), the “Biodistribution, striatum” value was 0.037 ± 0.004 ^a %ID/gram and the “Biodistribution, total brain” value is given as 0.015 ± 0.002 %ID/gram.
Usually IC50 stands for the concentration needed to halve the response being measured. Regarding `COc1ccc2nc(COc3ccc(-c4nn(C)cc4-c4ccncc4)cc3)ccc2c1` [Compound 3], the IC50 in the data set on PDE10A was 1.82 ± 0.25 nM.
For `COc1cc2ccccc2nc1COc1ccc(-c2nn(C)cc2-c2ccncc2)cc1` [Compound 1], the IC50 in the data set with PDE10A was 0.4 ± 0.02 nM.
For `Cn1cc(-c2ccncc2)c(-c2ccc(OCc3ccc4cc(O[11CH3])ccc4n3)cc2)n1` [[^11C]3, 6-(methoxy-^11C)-2-((4-(1-methyl-4-(pyridin-4-yl)-1H-pyrazol-3-yl)phenoxy)methyl)quinoline], in data set [1] (5 min p.i.), the “Biodistribution, blood” value stood at 0.282 ± 0.025 %ID/gram; the “Biodistribution, cerebellum” value came out at 0.251 ± 0.031 %ID/gram; the “Biodistribution, fat” value turned out to be 0.139 ± 0.038 %ID/gram; the “Biodistribution, heart” value is 0.416 ± 0.026 %ID/gram. In data set [1] (5 min p.i.), the “Biodistribution, kidney” value was 1.333 ± 0.282 %ID/gram; the “Biodistribution, liver” value amounted to 5.357 ± 0.989 %ID/gram; the “Biodistribution, lung” value stood at 0.744 ± 0.241 %ID/gram; the “Biodistribution, muscle” value is 0.151 ± 0.027 %ID/gram. Besides, in data set [1] (5 min p.i.), the “Biodistribution, striatum” value is given as 0.293 ± 0.075 ^b %ID/gram and the “Biodistribution, total brain” value is on record as 0.249 ± 0.037 %ID/gram. Besides, in data set [1] (30 min p.i. (control)), the “Biodistribution, blood” value worked out at 0.275 ± 0.041 %ID/gram; the “Biodistribution, cerebellum” value is reported as 0.090 ± 0.018 %ID/gram; the “Biodistribution, fat” value came out at 0.221 ± 0.060 %ID/gram; the “Biodistribution, heart” value worked out at 0.264 ± 0.032 %ID/gram. Further, in data set [1] (30 min p.i. (control)), the “Biodistribution, kidney” value was determined as 0.883 ± 0.123 %ID/gram; the “Biodistribution, liver” value is 3.172 ± 0.606 %ID/gram; the “Biodistribution, lung” value came out at 0.389 ± 0.082 %ID/gram; the “Biodistribution, muscle” value came to 0.175 ± 0.009 %ID/gram. Also, in data set [1] (30 min p.i. (control)), the “Biodistribution, striatum” value is 0.160 ± 0.023 ^a %ID/gram and the “Biodistribution, total brain” value is reported as 0.105 ± 0.011 %ID/gram. In data set [1] (60 min p.i.), the “Biodistribution, blood” value is given as 0.210 ± 0.023 %ID/gram; the “Biodistribution, cerebellum” value was determined as 0.066 ± 0.008 %ID/gram; the “Biodistribution, fat” value worked out at 0.135 ± 0.026 %ID/gram; the “Biodistribution, heart” value amounted to 0.182 ± 0.020 %ID/gram. Moreover, in data set [1] (60 min p.i.), the “Biodistribution, kidney” value is 0.637 ± 0.052 %ID/gram; the “Biodistribution, liver” value is on record as 1.724 ± 0.510 %ID/gram; the “Biodistribution, lung” value stood at 0.249 ± 0.015 %ID/gram; the “Biodistribution, muscle” value is 0.129 ± 0.006 %ID/gram. In data set [1] (60 min p.i.), the “Biodistribution, striatum” value is recorded as 0.089 ± 0.014 ^a %ID/gram and the “Biodistribution, total brain” value is reported as 0.074 ± 0.005 %ID/gram.
Regarding `COc1cc(COc2ccc(-c3nn(C)cc3-c3ccncc3)cc2)nc2ccccc12` [Compound 2], in the data set on PDE10A, the concentration for half-maximal inhibition (IC50) was 0.28 ± 0.06 nM.
